Experimental data reported in US10758609B2, “Cross-reactive T-cell epitopes of HIV, SIV, and FIV for vaccines in humans and cats” (priority 2015, dated 2020).

Experiments:
[1] = tested on: PBMC from FIV-vaccinated cats; experiment: Feline IFNγ ELISpot of PBMC from vaccinated cats; format: cell-based, cat; details: for IFNγ production: pilot study, pre-challenge; for IFNγ response rate: MAP Trial 2
Procedure: (§1) IFNγ and IL2 ELISpot analyses were performed using feline IFNγ ELISpot and feline IL2 ELISpot kits (R&D Systems, Cat# SEL764 and SEL1890) as described. The threshold is defined as ≥50 spot forming units (SFU) per 1×10^6 PBMC when counted with MVS ELISpot Reader (MVS Pacific, LLC). Each result is an average of the duplicate samples after subtraction of the average value of the media controls.
(§2) Concurrently, the overlapping peptide pools of FIV structural/enzyme proteins were used to stimulate PBMC and T cells from FIV-vaccinated cats. These cats were vaccinated with prototype dual-subtype FIV vaccine which was the prototype to our commercial FIV vaccine (Coleman et al., 2014). The feline assays (Example 1) equivalent to those of human assays (Sanou et al., 2013; Roff et al., 2015) were used except for ICS analysis. In place of ICS for cytolysin/cytotoxins, IL2 ELISpot analysis was performed. […] The results for FIV-vaccinated cats included IFNγ and IL2 productions and CD3^+CD4+ and CD3^+CD8^+ T-cell proliferation (Table 9, the second set of results).
(§3) The feline IFNγ and L2 ELISpot analyses of PBMC to FIV MAPs and peptides were performed as previously described (Abbott et al. (2012)) using feline IFNγ modular kit (R&D Systems, Minneapolis, Minn.) and feline IL2 modular kit (R&D Systems). All results shown in the figures (FIGS. 8A-1, 8B-1, 8A-2, 8B-2, 8A-3, 8B-3) are after subtracting the average value of the results from all control cats.
(§4) The second parameter evaluated was the ability of the peripheral blood mononuclear cells (PBMC) from vaccinated and control cats to produce IL2 and interferon-γ (IFNγ) proteins in responses to FIV MAPs and peptides (FIGS. 8A-1, 8A-2, 8A-3, 8B-1, 8B-2, 8B-3) using feline IL2 and IFNγ ELISpot assays (Aranyos et al. (2016); Abbott et al. (2012)). IL2 enhances the proliferation of FIV-specific CD4^+ T cells and CD8^+ T cells. IFNγ is known enhance the FIV-specific CTL activities in vaccinated cats (Abbas et al. (2015)).

[2] = tested on: PBMC from FIV-vaccinated cats; experiment: Feline IL2 ELISpot of PBMC from vaccinated cats; format: cell-based, cat
Procedure: as §1, §2, §3, §4

[3] = tested on: feline CD3^+CD8^+ T cells; experiment: CFSE-based feline CD3+CD8+ T-cell proliferation; design: species or system cat; details: FIV-vaccinated cats; for CD8, frequency of responders: FIV epitope peptide; for CD8^+ T (T-cell proliferation), frequency of responders: FIV peptides
Procedure: Carboxyfluorescein diacetate succinimide ester (CFSE)-proliferation was performed according to the manufacturer's protocol (Invitrogen, Grand Island, N.Y.) and processed using a previously described modification. The modification consisted of 2.5×10^5 CFSE-labeled feline PBMC stimulated for 5 days (37° C., 5% CO2) with 4 μg/mL peptide in culture media (RPMI medium 25 µg/mL gentamycin, and 10% heat-inactivated fetal bovine serum (FBS)). Peptide pools consisted of 3-5 overlapping peptides of 4 μg/mL each. The antibodies used for flow cytometry based proliferation analysis consisted of murine anti-feline (Fe) CD3 monoclonal antibody (MAb clone kindly provided by Drs. Yorihiro Nishimura and Takayuki Miyazawa; described in [32]) combined with secondary goat anti-mouse IgG3-APC/CY7 MAb (SouthernBiotech, Birmingham, Ala.; Cat#1100-19); and murine anti-FeCD4-PE MAb (SouthernBiotech, Cat#8130-09); and murine anti-FeCD8 MAb (MAb clone kindly provided by Dr. Nazareth Gengozian, described in [33]) with secondary goat anti-mouse IgG2a-PE/CY7 (Southern Biotech, Cat#1080-17). The murine anti-B220-APC MAb for detecting feline B cells (SouthernBiotech, Cat#1665-11) and previously described MAbs for CFSE were used for FACS phenotyping. Both FACS phenotyping and CFSE-proliferation analyses were performed with BD LSRII and FACSDiva™ Software (BD Biosciences, San Jose, Calif.). The final value for each sample was derived after subtraction of the average value of the media controls using a positive threshold of ≥1 CFSE^low.
as §2
Carboxyfluorescein diacetate succinimide ester (CFSE)-proliferation analysis was according to the manufacturer's protocol (Invitrogen-Fisher, Carlsbad, Calif.) and processed as previously described (Roff et al. (2015)) using the following modifications: anti-feline CD3 antibody ((clone NZM1), a generous gift from T. Miyazawa (Univ. of Tokyo, Japan)) in combination with APC-conjugated anti-mouse IgG3 (Southern Biotech, Birmingham, Ala.), PE-conjugated anti-feline CD4 antibody (Southern Biotech), and anti-feline CD8 antibody (gift from N. Gengozian, University of Tennessee (Gengozian et al. (1997))) in combination with PE/Cy7-conjugated anti-mouse IgG2b (Southern Biotech) to detect the proliferation of feline CD3^+CD4+ T cells and feline […]. All results shown in the figures (FIGS. 7A-1, 7B-1, 7A-2, 7B-2, 7A-3, 7B-3) are after subtracting the average value of each results from all control cats. The threshold of CFSE proliferation is ≥0.5 CFSE^low. […]

FIVFC1 = experiment: FIV enhancement and suppression (E/S) analysis of in vitro FIV infection of feline PBMC; format: cell-based, feline immunodeficiency virus; details: FIV-vaccinated cats; for E/S pMAP: viral enhancement or suppression: Palmitoyled Pam-MAP (pMAP) of the peptide, ** = MAP(Fp4-3/Fp14-1); for E/S: viral enhancement or suppression: peptide
[4] = ELISA and FIV immunoblot for antibodies to vaccine peptides/MAPs; format: in vivo, cat; details: IWV/MAP-vaccinated cats, throughout the vaccination (pilot study)
Procedure: To avoid detection of vaccine antibodies to p24 and RT, post-challenge sera were evaluated for infection-induced FIV antibodies by ELISA using 200 ng/well of transmembrane peptide (TM, aa 694-705: […] (SEQ ID NO:68)) as previously described. The positive threshold for anti-TM antibodies was set at 0.2 O.D. The post-vaccination sera immediately before challenge were evaluated for NAb titer to FIVPet and FIVFC1 by NAb assay as previously described. The post-vaccination/pre-challenge sera were tested for antibodies to vaccine peptides by ELISA using each peptide as substrate and by FIV immunoblot with mini-blot modification as previously described. All ELISA thresholds were set at twice the average of the individual serum from 15-20 SPF cats.

[5] = FIV epitope peptide, FIV-vaccinated cats
[6] = FIV peptides, FIV-vaccinated cats (prototype dual-subtype vaccine)

AGLRQSLEQYQVVKQ [FSU4]
IFNγ, frequency of responders [1, 5]: +++ (41%-54% (+++))
IFNγ, frequency of responders [1, 6]: +++ (40.1%-54% (+++))
IL2, frequency of responders ([2]; FIV epitope peptide): — (0%-1.4% (—))
IL2, frequency of responders ([2]; FIV peptides): — (0%-1.4%(—))
CD8, frequency of responders [3]: +++ (41%-54% (+++))
CD8^+ T (T-cell proliferation), frequency of responders [3]: +++ (40.1%-54% (+++))

KFLYTAFAMQELR [FTM4-3]
IFNγ, frequency of responders [1, 5]: ++++ (>54% (++++))
IFNγ, frequency of responders [1, 6]: ++++ (>54% (++++))
IL2, frequency of responders ([2]; FIV epitope peptide): ++++ (>54% (++++))
IL2, frequency of responders ([2]; FIV peptides): ++++ (>54% (++++))
CD8, frequency of responders [3]: ++ (26%-40% (++))
CD8^+ T (T-cell proliferation), frequency of responders [3]: ++ (25.1%-40% (++))

KKKSGKWRMLIDFRV [FRT3-3]
E/S pMAP: viral enhancement or suppression (FIVFC1): ↓X
E/S tMAP: viral enhancement or suppression (FIVFC1; Tat-MAP (tMAP) of the peptide): ↓+
E/S: viral enhancement or suppression (FIVFC1): ↑
Peptide-specific serum antibodies (ELISA) [4]: No specific antibodies
IFNγ, frequency of responders [1, 6]: ± (1.5%-12.4% (±))
IL2, frequency of responders ([2]; FIV epitope peptide): ++ (26%-40% (++))
IL2, frequency of responders ([2]; FIV peptides): ++ (25.1%-40% (++))
CD8, frequency of responders [3]: +++ (41%-54% (+++))
CD8^+ T (T-cell proliferation), frequency of responders [3]: +++ (40.1%-54% (+++))

LLLILCLPTLVDCIRN [FTM8(20)]
IFNγ, frequency of responders [1, 5]: ++ (26%-40% (++))
IFNγ, frequency of responders [1, 6]: ++ (25.1%-40% (++))
IL2, frequency of responders ([2]; FIV epitope peptide): — (0%-1.4% (—))
IL2, frequency of responders ([2]; FIV peptides): — (0%-1.4%(—))
CD8, frequency of responders [3]: ++++ (>54% (++++))
CD8^+ T (T-cell proliferation), frequency of responders [3]: ++++ (>54% (++++))

PTDMATLIMAAPGCA [Fp4-3]
E/S pMAP: viral enhancement or suppression (FIVFC1): ↑**
E/S: viral enhancement or suppression (FIVFC1): ↑
Peptide-specific serum antibodies (ELISA) [4]: No specific antibodies
IFNγ, frequency of responders [1, 5]: ++ (26%-40% (++))
IFNγ, frequency of responders [1, 6]: ++ (25.1%-40% (++))
IFNγ production ([1]; cat OCA): 161 SFU
IFNγ production ([1]; cat SBA): 60 SFU
IL2, frequency of responders ([2]; FIV epitope peptide): + (12.5%-25% (+))
IL2, frequency of responders ([2]; FIV peptides): + (12.5%-25% (+))
CD8, frequency of responders [3]: + (12.5%-25% (+))
CD8^+ T (T-cell proliferation), frequency of responders [3]: + (12.5%-25% (+))

WRMLIDFRVLNKL [FRT3-4]
E/S: viral enhancement or suppression (FIVFC1): ↓
Peptide-specific serum antibodies (ELISA) [4]: No specific antibodies
IFNγ, frequency of responders [1, 5]: ++ (26%-40% (++))
IFNγ, frequency of responders [1, 6]: ++ (25.1%-40% (++))
IFNγ response rate ([1]; 6 weeks post-3rd vaccination): 64.3%
IFNγ response rate ([1]; SQ and ID MAP-vaccinated cats, 6 weeks post-2nd vaccination): 14.3%
IL2, frequency of responders ([2]; FIV epitope peptide): ++ (26%-40% (++))
IL2, frequency of responders ([2]; FIV peptides): ++ (25.1%-40% (++))
CD8, frequency of responders [3]: +++ (41%-54% (+++))
CD8^+ T (T-cell proliferation), frequency of responders [3]: +++ (40.1%-54% (+++))
